Marks after values point to notes of the source that are not given here.
What was measured:
Assay type in all cases: cell-based
[1] = system: Gsα; assay: Content of G protein (Gsα) in C6-2B glioma membranes after antidepressant treatment, quantitative immunoblot
Protocol: (§1) C6-2B cells (between passages 20 and 40) were grown in 175-cm^2 flasks in Dulbecco's modified Eagle medium, 4.5 g of glucose/L, 10% bovine serum, in a 10% CO2 atmosphere, at 37° C. for 3 days after splitting. […] Male Sprague-Dawley rats weighing 150-200 g were fed ad libitum and maintained in a 12-h light/dark cycle. […] 36:803-838, 1989]. […] Rat cerebral cortex membranes were prepared according to the method of Rasenick et al. [Nature, 294:560-562; 1981].
(§2) Rat cortex membrane, C6-2B cell membranes, or Triton extracts of each membrane preparation were subjected to SDS-PAGE followed by electrotransfer to polyvinylidene difluoride (PVDF) membrane. The PVDF membrane was incubated with a phosphate-buffered saline/Tween 20 Buffer (140 mM NaCl, […]. 0.1% Tween 20, pH 7.4) and 3% bovine serum albumin. The membrane was then incubated with polyclonal rabbit antisera against the various G protein subunits [RM (Gsα) or 116 (Gi1, Gi2, Gi3α)] at a 1:25,000 (RM) or 1:5,000 (116) dilution (see below for source of antibodies). […] Immunoreactivity was detected with an enhanced chemiluminescence (ECL) western blot detection system (Amersham) in accord with the manufacturer's instructions. The developed autoradiographs were analyzed by densitometry.
Purified recombinant GsαL (long form of Gsα; 1-10 ng/lane) was subjected to SDS-PAGE and transferred to PVDF membranes. The blots were incubated with antibody against Gsα (RM) and processed by ECL. Films were analyzed on a Molecular Dynamics densitometer, and the volume of each band was quantified and used to make a standard curve.
Experiments were conducted to determine whether Gsα is quantitatively altered by antidepressant therapy. For quantification of Gsα in C6-2B membrane, a standard curve was created using purified recombinant […]. Pure Gsα (1-20 ng/well) was subjected to SDS-PAGE and transferred to a PVDF membrane, Gsα was immunodetected by antisera against the as subunit of G protein.
To estimate the effect of antidepressant treatment on the amount of Gsα in C6-2B membranes, equal amounts (10 μg) of C6-2B glioma membrane proteins in control and chronically (3 days) antidepressant-treated groups were subjected to SDS-PAGE. Gsα was immunodetected by antisera against the αs subunit of G protein.

[2] = system: Gsα; assay: Sequential detergent extraction (Triton X-100 / Triton X-114) of Gsα from C6-2B glioma membranes; conditions: C6-2B cells; for GsαL in Remainder, % of corresponding value in control group / GsαL in Triton X-100 extract, % of corresponding value in control group / GsαL in Triton X-114 extract, % of corresponding value in control group / GsαS in Remainder, % of corresponding value in control group / GsαS in Triton X-100 extract, % of corresponding value in control group / GsαS in Triton X-114 extract, % of corresponding value in control group: mean ± SEM of 4-5 experiments
Protocol: as §1
Membrane proteins were extracted sequentially from C6-2B or rat synaptic membranes as described [Yan et al., J. Neurochem., 66:1489-1495; 1996]. These membranes were stirred on ice in HEPES (15 mM, pH 7.4) containing 1% Triton X-100 for 60 min followed by centrifugation at 100,000 g for 60 min at 4° C. The supernatant was reserved (Triton X-100 extract), and the resulting pellet was resuspended in Tris (15 mM, pH 7.4) containing 1.4% Triton X-114 and 150 mM NaCl. The solution was stirred for 60 min at 4° C. and centrifuged for 30 min at 100,000 g in the cold. The supernatant was saved (Triton X-114 extract). These supernatants and remaining pellet (remainder) were subjected to sodium dodecyl sulfate (SDS)-polyacrylamide gel electophoresis (PAGE) using 10% gels. All of the extraction buffers contained 1 mM PMSF and 1 mM EGTA.
as §2
A membrane-enriched fraction was prepared (see Example 1), and membrane proteins were extracted sequentially with Triton X-100 (Tx 100) and Triton X-114 (Tx 114). Equal amounts of these extracts were subjected to SDS-PAGE and transferred to PVDF membrane. The long and short forms of Gsα (GsαL and GsαS) from different fractions were identified by immunodetection.
Experiments were conducted according to the method set forth in Example 1 to assess the effects of different antidepressants on the detergent extraction of Gsα from C6-2B glioma cells.
The ratios of the percentage of Gsα extracted by the two detergents in the treatment versus control groups were compared and are set forth in Table 2 as percentage of control (i.e., each Triton X-100 extract was compared with the untreated Triton X-100 extract; the same was done for Triton X-114 extracts as well as the remainder).

[3] = system: Gsα; assay: Gsα in Triton-insoluble, caveolin-enriched versus Triton-soluble fraction of C6-2B cells (sucrose density gradient, immunoblot); conditions: chronic treatment, FIG. 3C
Protocol: as §2

[4] = system: Gsα; assay: Cellular localization of Gsα in C6-2B cells, immunofluorescence laser scanning confocal microscopy; conditions: 10 μM, 3 days
Protocol: C6-2B cells (between passages 30 and 50) were plated onto coverslips and allowed to attach overnight in Dulbecco's modified Eagle's medium. 4.5 g/l glucose, 10% bovine serum, and 100 μg/ml penicillin and streptomycin at 37° C. in a humidified 10% CO2 atmosphere. […] Therefore, the latter treatment paradigm was used in these experiments because it was easier to maintain the cell cultures for 3 days. […] The culture media and drug were changed daily. […] After the treatment duration, the cells were incubated in drug-free media for 45 to 60 minutes before fixation.
After treatment, cells were washed once with phosphate-buffered saline (PBS, […] NaCl, 2.6 mM KCl, 5.4 mM NaαPO4 7H2O, pH 7.4) and fixed with ice-cold methanol for 10 minutes. Cells were then washed three times with PBS followed by 2 h of blocking in 5% normal goat serum/0.2% fish skin gelatin in PBS. Primary antibody was added for 1.5 h, Gsα/RM1 (PerkinElmer Life Sciences, Boston, Mass.) 1:50 and Goα (Santa Cruz Biotechnology, Santa Cruz, Calif.) 2 μg/ml, followed by three washes with PBS. Oregon Green-labeled secondary antibody (Molecular Probes, Eugene, Oreg.) was added at a concentration of 8 μg/ml for 1 h followed by three PBS washes. The coverslips were mounted onto slides with Vectashield (Vector Laboratories. Burlingame, Calif.) containing diamidino-2-phenylindole as a mounting medium. Images were acquired using a Zeiss LSM510 laser-scanning confocal microscope (Carl Zeiss Inc., Thornwood, N.Y.). A single 488-nm beam from an argon/krypton laser was used for excitation of the Oregon Green. Differential interference contrast images were also acquired. Five experiments were performed and coverslips were examined. Approximately 2100 cells from control and desipramine-treated coverslips were counted by two investigators blind to the experimental conditions over the course of the five experiments.
The cellular distribution of Gsα was quantified in confocal imaged C6-2B cells using NIH-Image software (http://rsbinfonihpov/nih-image) as describe previously [Southwell et al., Cell Tissue Res., 292:37-45, 1998; Jenkinson et al., Br. J. Pharmacol., 126:131-136, 1999]. Images of 9×1 μm optical, planar sections taken from four randomly selected control and four randomly selected desipramine-treated cells were captured and the middle five sections from each cell were quantified. Total cellular Gsα fluorescence was measured by counting the number of pixels with intensity above threshold (determined by minimum intensity above background in this case 50 pixels). The areas of intensity were numbered and divided visually into those localized to the cell body and those localized to the processes and process tips. The total from each region was divided by the total cell pixel intensity and expressed as a percentage of the total. This was done for each section of each cell and the sections were averaged per cell to give an average percentage total per cell.
In a separate investigation, seven sets of 300 cells each from control group and desipramine-treated cells from five experiments were counted to determine the primary localization (processes and process tips or cell body) of Gsα within these cells. The majority of the cells stained positively for Gsα throughout the entire cell, but there was usually an enhancement in one of these regions. […] The counts are expressed as the ratio of process and process tip localization/cell body localization.
Studies were conducted to determine whether a shift in cellular localization of Gsα occurred in C6-2B cells subjected to antidepressants.
Twenty-one hundred cells from each group (control versus desipramine-treated) over a series of five experiments were examined to quantify the extent of the antidepressant effect. […] Abnormal cells or those not displaying processes were not included in the cell count. Cells (300-450) were counted per experiment and the ratio of category A cells to category B cells for each group is shown in FIG. 8. […]

[5] = C6-2B membranes, 10 μM drug for 3 days, mean ± SEM of 4-5 experiments

Row | SMILES | Quantity of G proteins in membrane, treated versus control ([1]; C6-2B cells, 10 μM, 3 days, p>0.05) | G protein amount, Total [1, 5] | G protein amount, αsL [1, 5] | G protein amount, αsS [1, 5] | GsαL in the Triton X-114 fraction versus control group ([2]; 10 μM, 3 days, FIG. 1) | GsαL in Remainder, % of corresponding value in control group ([2]; 10 μM, 3 days) [%] | GsαL in Triton X-100 extract, % of corresponding value in control group ([2]; 10 μM, 3 days) | GsαL in Triton X-114 extract, % of corresponding value in control group ([2]; 10 μM, 3 days) | GsαS in Remainder, % of corresponding value in control group ([2]; 10 μM, 3 days) | GsαS in Triton X-100 extract, % of corresponding value in control group ([2]; 10 μM, 3 days) | GsαS in Triton X-114 extract, % of corresponding value in control group ([2]; 10 μM, 3 days) [%] | Decrease of the amount of Gsα in the caveolin-enriched Triton-insoluble fraction, normalized to equal caveolin [3] | Gsα immunofluorescence in cell processes and process tips [4] | Cells displaying intense Gsα staining at the process tips (and processes) ([4]; control 64%) [%] | Shift of Gsα to the less hydrophobic Triton X-100 fraction [2]
1 | CN(C)CCC=C1c2ccccc2CCc2ccccc21 [Amitriptyline, amitriptyline] | no significant differences | 13.10 ± 0.34 ng/10 ug of membrane protein | 8.13 ± 0.17 ng/10 ug of membrane protein | 4.98 ± 0.21 ng/10 ug of membrane protein | significantly lower | 83.4 ± 14.5 | 120.3 ± 3.7^b % | 84.5 ± 0.8^b % | 82.6 ± 5.1^a % | 140.3 ± 9.3^b % | 92.7 ± 3.8 | – | – | – | –
2 | CN(C)CCCN1c2ccccc2Sc2ccc(Cl)cc21 [Chlorpromazine, chlorpromazine] | – | – | – | – | – | 83.8 ± 22.0 | 107.4 ± 8.3% | 105.7 ± 6.5% | 100.4 ± 31.6% | 113.4 ± 10.7% | 102.2 ± 15.6 | no more than 25% | uniform distribution of Gsα similar to control | 68 | did not exert these effects
3 | CC(N)Cc1ccccc1 (stereo not shown) [amphetamine] | – | – | – | – | – | – | – | – | – | – | – | – | – | – | without effect

— patent USRE43712E1, “Methods for assaying for antidepressant therapy markers” (The Board of Trustees of the Uniersity of Illinois, priority 2000, dated 2012)
